“Also recorded” adds a separate entry of the source.
Assay: Urinary and faecal excretion screening of an intravenously administered contrast agent
Format: in vivo
Conditions: rats
Procedure: Experimental Model for the Urinary and Faecal Excretion Screening of an Intravenously Administered Contrast Agent
The experimentation is performed on 6 rats.
The rats are individually housed in metabolic cages and urine and faeces are collected daily, for 7 days after administration. In particular faeces and urine are collected at the following time periods: 0 to 24 h,and every 24 hours up to 7 days.
The animals are killed by decapitation at 7 days post-dosing and animals blood is collected in heparinised test tubes and then centrifuged for 15 min at 3500·g to separate the plasma. After bleeding, liver, spleen, femurs and kidneys are collected and weighted to evaluate residual content of Gd in the organs. Residual gadolinium concentration in the organic samples is determined by inductively-coupled plasma atomic emission spectrometry (ICP-AES) with a Jobin-Yvon Mod 24 spectrometer
Excretion Screening of Rats Injected with B22956/1.
The screening is performed using the contrast compound as 0.25M solution. The agent in intravenously injected in 6 rats with single doses of 0.1 and 1.0 mmol·kg^−1 of animal body weight.

[1] = 0.1 mmol·kg^-1 intravenous, 7 days
[2] = 1.0 mmol·kg^-1 intravenous, 0 to 7 days
[3] = 1.0 mmol·kg^-1 intravenous, within 24 h after injection

## gadolinium complex of the [3(S),5,12]-3-[[4-[bis[2-[bis(carboxymethyl)-amino]ethyl]amino]-4-carboxy-1-oxobutyl]amino]-12-hydroxycholan-24-oic acid [B22956/1]
0.1 mmol·kg^-1 intravenous
  cumulative urinary and faecal elimination within 7 days: 94 to 102 % of the ID
[1]
  average cumulative amount of gadolinium recovered in faeces: 88.2±7.9 % of the injected dose (ID)
  average cumulative amount of gadolinium recovered in urine: 9.0±3.7 % of the ID
0.1 mmol·kg^-1 intravenous, within 24 h after injection
  injected dose recovered in the faeces within 24 h: ~87 % of the injected dose
1.0 mmol·kg^-1 intravenous
  cumulative urinary and faecal elimination within 7 days: 89 to 92 % of the ID
[2]
  gadolinium recovered in faeces, cumulative amount: 39.7±1.4 % of the ID
  gadolinium recovered in urine, cumulative amount: 52.7 % of the ID
[3]
  injected dose recovered in the faeces within 24 h: about 37 % of ID
  injected dose recovered in the urine within 24 h: ~48 % of the injected dose
7 days after 0.1 or 1.0 mmol·kg^-1
  residual Gd in plasma, liver, spleen, femurs and kidneys: almost total absence of gadolinium residues; also recorded: very low or negligible
7 days after administration, plasma volume taken as 40 mL/Kg
  residual Gd in the plasma as fraction of injected dose: less than 0.04 % of the injected dose
7 days, both administered doses, ICP-AES detection limit
  residual content of Gd in plasma: < 0.05 μg gadolinium/mL
